Assay results taken from PMC3997483, “Aminostyrylbenzofuran Directly Reduces Oligomeric Amyloid-β and Reverses Cognitive Deficits in Alzheimer Transgenic Mice” (PLoS ONE, 2014).
Where two headings read alike, the source gives them in different places.

Experiments:
APP/PS1 TG mice = assay: Y-maze, prophylactic trial; assay type: in vivo, mouse; conditions: 5 to 12 months of age
Plasma stability = assay type: in vitro ADME; conditions: 37 °C
Procedure: Plasma stability studies Plasma stability of the KMS88009 was studied in human, dog, rat and mouse plasma. Each plasma from different species was diluted to 5-fold with 0.05 M phosphate buffered saline (PBS, pH 7.4 at 37 °C). We added KMS88009 to 1 mL of preheated plasma solution to yield a final concentration of 1 μM. The assay was performed in a shaking water bath at 37 °C and conducted in triplicate. Samples (50 μL) were taken at 0, 0.5, 1, 2 and 6 hr and added to 10 μL of 0.05% formic acid. The samples were subjected to vortex mixing for 1 min and centrifuged at 4 °C for 20 min at 14,000 rpm. The clear supernatants were analyzed by liquid chromatography/mass/mass spectrometry (LC-MS/MS). Values are expressed as the mean ± SD of 2 independent experiments. Stability is expressed as the percentage of remaining compound in % relative to the start concentration set to 100%.

Aβ40 and Aβ42 = assay: Aβ40/Aβ42 sandwich ELISA of brain tissue, prophylactic trial; assay type: in vivo, mouse
Procedure: Mice subjected to behavior tests were sacrificed and levels of Aβ in their brains were analyzed. After removing olfactory lobe and cerebellum of brain, hippocampus and cerebral cortex were separated. The separated regions were Dounce-homogenized first in 10-fold mass of a lysis buffer (RIPA, 150 mM NaCl, 1% NP-40, 0.5% deoxycholic acid, 0.1% SDS and 50 mM tris, pH 8.0) or tris buffer (50 mM tris and pH 8.0) containing protease inhibitor cocktail (Pierce, USA) for prophylactic or therapeutic treatment groups, respectively. […] The supernatant (soluble Aβ fraction) was collected and stored at −70°C until analyzed. The resulting pellet was solubilized in 20-fold mass of cold guanidine solution (5 M guanidine HCl, 50 mM tris HCl and pH 8.0) at room temperature for 4 hr followed by dilution with cold Dulbecco's phosphate buffered saline (PBS) with 5% BSA and 0.03% tween-20. […] The tissue concentrations of Aβ40 and Aβ42 in the soluble and insoluble fraction were measured using Aβ-detecting sandwich enzyme-linked immunosorbent assay (ELISA) kit (BioSource, USA). The levels of soluble Aβ oligomers were measured by a dot-blot immunoassay with an anti-oligomer antibody and an anti-Aβ antibody on soluble fraction of hippocampus homogenates. The homogenate sample (3 µL) was spotted onto nitrocellulose membrane (Whatman, UK). After blocking with 5% BSA in tris-buffered saline (TBS) for 1 hr at room temperature, the membrane was incubated with rabbit anti-oligomer polyclonal antibody (A11; 1∶1,000; Millipore, USA) overnight at 4°C, followed by incubation with HRP-secondary anti-rabbit antibody (1∶5,000; Millipore, USA) for 1 hr at room temperature. Blots were developed using ECL reagents (PerkinElmer, USA). Blots were re-identified after oligomeric antibody was stripped and re-probing with the anti-Aβ antibody 6E10 (1∶1,000; Signet, UK). The density of dots was analyzed with Multi Gauge program (Fuji Film, Japan) and the data was normalized to the average density of the TG control group. […] Membrane was incubated in a 5% solution of non-fat dry milk for 1 hr at room temperature. […]

[1] = Pharmacokinetics IV/PO in monkeys; assay type: in vivo, cynomolgus monkeys; conditions: for AUC(0-t): read-out: AUC0–24h
Procedure: Pharmacokinetics profile of KMS88009 was obtained using ICR mice, SD rats, beagle dogs and cynomolgus monkeys. Animals were fasted overnight before KMS88009 administration. Mice were divided into 2 groups to receive KMS88009 as a single dose of 2.1 mg/kg intravenous (IV) bolus or 10 mg/kg orally (PO) by gavage. Additionally, KMS88009 was administered orally to estimate the BBB penetration in mice (10, 30 and 100 mg/kg). […] Dog received KMS88009 either as an IV bolus (1 mg/kg) via the great saphenous vein or by oral gavage (4 mg/kg). […] Vehicle for IV and PO administration was DMSO/tween-20/saline (3.3∶19.8∶79.6). […]. Brain samples were weighed and Daunce-homogenized in 10-fold volume of ice-chilled 4% bovine serum albumin (BSA) solution at room temperature. Plasma and brain homogenates were kept frozen at −70°C until analysis. The levels of KMS88009 were determined by the LC-MS/MS analysis. Pharmacokinetic parameters, time to the maximum concentration (Tmax), maximum concentration (Cmax), elimination half-life (T1/2), volume of distribution (Vd), clearance (Cl) and mean residual time (MRT), of KMS88009 were calculated based on plasma concentration-time data by a non-compartmental method using WinNonlin Version 5.2 (Pharsight, USA). Area under the curve from 0 to 24 hr (AUC0-24h) and area under the curve from 0 to infinity (AUCINF) were obtained by linear and log linear trapezoidal summations.

[2] = cortex, 10-100 mg/kg/day groups
[3] = cynomolgus monkey, plasma, monkey IV 0.77 mg/kg
[4] = cynomolgus monkey, plasma, monkey PO 5.6 mg/kg
[5] = cynomolgus monkey, monkey IV 0.77 mg/kg, plasma
[6] = cynomolgus monkey, monkey PO 5.6 mg/kg, plasma

SMILES: COc1ccc2cc(C=Cc3ccc(N(C)C)cc3)oc2c1 [KMS88009, 6-methoxy-2-(4-dimethylaminostyryl) benzofuran]
- frequency of spontaneous alternation (Y-maze) (APP/PS1 TG mice; PO 10 mg/kg/day): 69.3%
- frequency of spontaneous alternation (Y-maze) (APP/PS1 TG mice; PO 30 mg/kg/day): 68.5%
- frequency of spontaneous alternation (Y-maze) (APP/PS1 TG mice; PO 100 mg/kg/day): 70.2%
- Parent compound remaining (Plasma stability; dog plasma, 0.5 hr): 100.0%
- Parent compound remaining (Plasma stability; dog plasma, 1 hr): 100.0%
- Parent compound remaining (Plasma stability; dog plasma, 2 hr): 100.0%
- Parent compound remaining (Plasma stability; dog plasma, 6 hr): 100.0%
- Parent compound remaining (Plasma stability; human plasma, 0.5 hr): 100.0%
- Parent compound remaining (Plasma stability; human plasma, 1 hr): 100.0%
- Parent compound remaining (Plasma stability; human plasma, 2 hr): 82.0%
- Parent compound remaining (Plasma stability; human plasma, 6 hr): 100.0%
- Parent compound remaining (Plasma stability; mouse plasma, 0.5 hr): 100.0%
- Parent compound remaining (Plasma stability; mouse plasma, 1 hr): 100.0%
- Parent compound remaining (Plasma stability; mouse plasma, 2 hr): 100.0%
- Parent compound remaining (Plasma stability; mouse plasma, 6 hr): 100.0%
- Parent compound remaining (Plasma stability; rat plasma, 0.5 hr): 86.9%
- Parent compound remaining (Plasma stability; rat plasma, 1 hr): 93.7%
- Parent compound remaining (Plasma stability; rat plasma, 2 hr): 100.0%
- Parent compound remaining (Plasma stability; rat plasma, 6 hr): 100.0%
- reduction of soluble Aβ40 level vs TG group (Aβ40 and Aβ42; [2]): 44∼60%
- reduction of soluble Aβ42 level vs vehicle-treated TG mice (Aβ40 and Aβ42; [2]): 59∼66%
- reduction of soluble Aβ40 level vs TG group (Aβ40 and Aβ42; hippocampus, except the 10 mg/kg/day group): 34∼36%
- MRT last [1, 3]: 3.6 ± 0.5 h
- Vd [1, 3]: 4.4 ± 1.1 L/kg
- clearance [1, 3]: 8.33 mL/min/kg
- half-life [1, 3]: 5.8 ± 0.8 h
- MRT last [1, 4]: 5.9 ± 0.6 h
- Tmax [1, 4]: 2.7 ± 1.2 h
- half-life [1, 4]: 4.3 ± 0.2 h
- AUC(0-inf) [1, 5]: 1590 ± 576 ng·h/mL
- AUC(0-t) [1, 5]: 1540 ± 550 ng·h/mL
- AUC(0-inf) [1, 6]: 3920 ± 1480 ng·h/mL
- Cmax [1, 6]: 505 ± 78.3 ng/mL
- AUC(0-t) [1, 6]: 3810 ± 1430 ng·h/mL
- BA ([1]; monkey PO 5.6 mg/kg vs IV 0.77 mg/kg): 34.1%
